Target: T1, Prostaglandin G/H synthase 1 (Ovis aries, UniProt P05979)
T1 sequence (P05979 whole entry): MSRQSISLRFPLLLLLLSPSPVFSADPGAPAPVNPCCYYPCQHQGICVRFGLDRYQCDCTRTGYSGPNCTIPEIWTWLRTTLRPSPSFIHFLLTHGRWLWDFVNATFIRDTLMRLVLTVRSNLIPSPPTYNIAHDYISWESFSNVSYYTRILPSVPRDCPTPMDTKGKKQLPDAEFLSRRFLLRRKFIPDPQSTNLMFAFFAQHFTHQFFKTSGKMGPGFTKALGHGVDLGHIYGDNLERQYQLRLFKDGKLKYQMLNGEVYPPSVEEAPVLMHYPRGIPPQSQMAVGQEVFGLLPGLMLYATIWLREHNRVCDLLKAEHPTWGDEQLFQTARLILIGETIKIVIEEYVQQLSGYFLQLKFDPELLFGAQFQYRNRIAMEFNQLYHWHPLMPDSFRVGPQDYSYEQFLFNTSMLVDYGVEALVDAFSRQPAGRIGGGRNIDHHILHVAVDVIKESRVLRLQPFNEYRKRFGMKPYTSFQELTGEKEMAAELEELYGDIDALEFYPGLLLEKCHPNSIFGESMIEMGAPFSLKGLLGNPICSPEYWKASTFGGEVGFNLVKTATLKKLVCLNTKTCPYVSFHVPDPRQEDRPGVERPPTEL
Assay: Inhibition of ovine COX1 by chemiluminescent assay

IC50	Compound
17.2 µM	CS(=O)(=O)c1ccc(C2SCCC(=O)N2Cc2ccccc2)cc1 (stereo not given)
16 µM	CS(=O)(=O)c1ccc(C2SCCC(=O)N2CCc2ccccc2)cc1 (stereo not given)
14.1 µM	CCCN1C(=O)CCSC1c1ccc(S(C)(=O)=O)cc1 (stereo not given)
14.8 µM	CCCCN1C(=O)CCSC1c1ccc(S(C)(=O)=O)cc1 (stereo not given)
14.9 µM	CCCCCN1C(=O)CCSC1c1ccc(S(C)(=O)=O)cc1 (stereo not given)
